Legend:
BRD4 BD1 = biological target: T1, BRD4 BD1 (Homo sapiens, UniProt O60885); assay: AlphaScreen binding assay, BRD4 Bromodomain 1
T1 construct: made in house
Procedure: (§1) The binding of Example compounds to BRD4 Bromodomain 1 and BRD4 Bromodomain 2 was assessed using 384-well AlphaScreen assay technology. His-epitope tagged BRD4 BD144-168 and BRD4 BD2333-460 were cloned, expressed, and purified to homogeneity. BRD4 BD1 and BRD4 BD2 binding and inhibition was assessed by monitoring the engagement of biotinylated Histone H4 (1-21) K5/8/12/16 tetra-acetylated peptide with the targets using the AlphaScreen technology (PerkinElmer). Specifically, in a 384-well black or white flat bottom plate, BRD4 BD1 (50 nM final) or BRD4 BD2 (100 nM final) was combined with peptide (50 nM final for BD1 or 100 nM final for BD2) in 50 mM HEPES (pH 7.3), 100 mM NaCl, 0.1% (w/v) BSA, and 0.01% (w/v) Triton X-100 either in the presence of DMSO (final 1.25% DMSO) or compound dilution series in DMSO. Alpha streptavidin donor beads and Nickel-chelate acceptor beads were added to a final concentration of 10 μg/ml each. After a minimum of 1 hour equilibration, plates were read on a BMG PHERAstar FS multi-label reader (BMG LabTech). The half maximal inhibitory concentration (IC50) values were calculated using IDBS Activity Base software with a four parameter logistic curve fit by the equation y=A+((B−A)/(1+((C/x)^D))), wherein A denotes the bottom plateau of the curve, B denotes the top plateau of the curve, C denotes the x value at the middle of the curve, D denotes the slope factor, x denotes the original known x values, and y denotes the original known y values. Data was fitted using the Levenburg Marquardt algorithm.

BRD4 BD2 = biological target: T2, BRD4 BD2 (Homo sapiens, UniProt O60885); assay: AlphaScreen binding assay, BRD4 Bromodomain 2
T2 construct: made in house
Procedure: as §1

SMILES	IC50 (BRD4 BD1) [nM]	IC50 (BRD4 BD2) [nM]
CC(=O)N1c2ccc(C(=O)N3CCCC3)cc2N(C(=O)c2ccco2)C[C@@H]1C [Example I-101, (S)-1-(4-(furan-2-carbonyl)-2-methyl-6-(pyrrolidine-1-carbonyl)-3,4-dihydroquinoxalin-1(2H)-yl)ethanone]	> 10000	> 500
CC(=O)N1c2ccc(-c3cnn(C4COC4)c3)cc2N(C(=O)CC(C)C)C[C@@H]1C [Example I-105, (S)-1-(4-acetyl-3-methyl-7-(1-(oxetan-3-yl)-1H-pyrazol-4-yl)-3,4-dihydroquinoxalin-1 (2H)-yl)-3-methylbutan-1-one]	> 10000	50 to 500
CC(=O)N1c2ccc(-c3cnn(C4COC4)c3)cc2N(C(=O)C(F)F)C[C@@H]1C [Example I-106, (S)-1-(4-acetyl-3-methyl-7-(1-(oxetan-3-yl)-1H-pyrazol-4-yl)-3,4-dihydroquinoxalin-1(2H)-yl)-2,2-difluoroethanone]	> 10000	50 to 500
CC(=O)N1c2ccc(-c3cnn(C4COC4)c3)cc2N(C(=O)CC(F)(F)F)C[C@@H]1C [Example I-108, (S)-1-(4-acetyl-3-methyl-7-(1-(oxetan-3-yl)-1H-pyrazol-4-yl)-3,4-dihydroquinoxalin-1 (2H)-yl)-3,3,3-trifluoropropan-1-one]	> 10000	50 to 500
CC(=O)N1c2ccc(-c3cnn(C4COC4)c3)cc2N(C(=O)C(C)C)C[C@@H]1C [Example I-109, (S)-1-(4-acetyl-3-methyl-7-(1-(oxetan-3-yl)-1H-pyrazol-4-yl)-3,4-dihydroquinoxalin-1 (2H)-yl)-2-methylpropan-1-one]	> 10000	> 500
CC(=O)N1c2ccc(-c3cnn(C4COC4)c3)cc2N(C(=O)C2CCOCC2)C[C@@H]1C [Example I-110, (S)-1-(2-methyl-6-(1-(oxetan-3-yl)-1H-pyrazol-4-yl)-4-(tetrahydro-2H-pyran-4-carbonyl)-3,4-dihydroquinoxalin-1(2H)-yl)ethanone]	> 10000	> 500
CC(=O)N1c2ccc(-c3cnn(C4COC4)c3)cc2N(C(=O)C(C)(C)Cl)C[C@@H]1C [Example I-115, (S)-1-(4-acetyl-3-methyl-7-(1-(oxetan-3-yl)-1H-pyrazol-4-yl)-3,4-dihydroquinoxalin-1(2H)-yl)-2-chloro-2-methylpropan-1-one]	> 10000	> 500
CC(=O)N1c2ccc(-c3cnn(CC(=O)N4CCOCC4)c3)cc2N(C(=O)C2CC2)C[C@@H]1C [Example I-125, (S)-2-(4-(1-acetyl-4-(cyclopropanecarbonyl)-2-methyl-1,2,3,4-tetrahydroquinoxalin-6-yl)-1H-pyrazol-1-yl)-1-morpholinoethanone]	1000 to 10000	50 to 500
CNC(=O)Cn1cc(-c2ccc3c(c2)N(C(=O)C2CC2)C[C@H](C)N3C(C)=O)cn1 [Example I-132, (S)-2-(4-(1-acetyl-4-(cyclopropanecarbonyl)-2-methyl-1,2,3,4-tetrahydroquinoxalin-6-yl)-1H-pyrazol-1-yl)-N-methylacetamide]	1000 to 10000	50 to 500
CC(=O)N1c2ccc(-c3cnn(CCC(=O)O)c3)cc2N(C(=O)C2CC2)C[C@@H]1C [Example I-136, (S)-3-(4-(1-acetyl-4-(cyclopropanecarbonyl)-2-methyl-1,2,3,4-tetrahydroquinoxalin-6-yl)-1H-pyrazol-1-yl)propanoic acid]	1000 to 10000	50 to 500
CC(=O)N1c2ccc(-c3cnn(Cc4noc(C)n4)c3)cc2N(C(=O)OC(C)C)C[C@@H]1C [Example I-138, (S)-isopropyl 4-acetyl-3-methyl-7-(1-((5-methyl-1,2,4-oxadiazol-3-yl)methyl)-1H-pyrazol-4-yl)-3,4-dihydroquinoxaline-1(2H)-carboxylate]	100 to 1000	50 to 500
CC(=O)N1c2ccc(-c3cnn(CCC(F)(F)F)c3)cc2N(C(=O)OC(C)C)C[C@@H]1C [Example I-142, (S)-isopropyl 4-acetyl-3-methyl-7-(1-(3,3,3-trifluoropropyl)-1H-pyrazol-4-yl)-3,4-dihydroquinoxaline-1(2H)-carboxylate]	1000 to 10000	50 to 500
CC(=O)N1c2ccc(-c3cnn(CCN4CCOCC4)c3)cc2N(C(=O)C2CC2)C[C@@H]1C [Example I-151, (S)-1-(4-(cyclopropanecarbonyl)-2-methyl-6-(1-(2-morpholinoethyl)-1H-pyrazol-4-yl)-3,4-dihydroquinoxalin-1(2H)-yl)ethanone]	1000 to 10000	50 to 500
CC(=O)N1c2ccc(-c3cnn(C4CC4)c3)nc2N(C(=O)Nc2ccc(F)cc2)C[C@@H]1C [Example I-192, (S)-1-acetyl-6-(1-cyclopropyl-1H-pyrazol-4-yl)-N-(4-fluorophenyl)-2-methyl-2,3-dihydropyrido[2,3-b]pyrazine-4(1H)-carboxamide]	> 10000	> 500
CC(=O)N1c2ccc(-c3cnn(C4CC4)c3)nc2N(C(=O)NC(C)C)C[C@@H]1C [Example I-193, (S)-1-acetyl-6-(1-cyclopropyl-1H-pyrazol-4-yl)-N-isopropyl-2-methyl-2,3-dihydropyrido[2,3-b]pyrazine-4(1H)-carboxamide]	> 10000	> 500

Other lines, results leading:

IC50 (BRD4 BD1) [nM]	IC50 (BRD4 BD2) [nM]	SMILES
> 10000	50 to 500	CC(=O)N1c2ccc(-c3ccc(S(C)(=O)=O)cc3)cc2N(C(=O)N2CCCC2)C[C@@H]1C [Example I-100, (S)-1-(2-methyl-6-(4-(methylsulfonyl)phenyl)-4-(pyrrolidine-1-carbonyl)-3,4-dihydroquinoxalin-1(2H)-yl)ethanone]
> 10000	> 500	CC(=O)N1c2ccc(-c3ccc(S(C)(=O)=O)cc3)cc2N(C=O)C[C@@H]1C [Example I-102, (S)-4-acetyl-3-methyl-7-(4-(methylsulfonyl)phenyl)-3,4-dihydroquinoxaline-1(2H)-carbaldehyde]
> 10000	> 500	C[C@H]1CN(C(=O)c2ccco2)c2cc(-c3ccc(S(C)(=O)=O)cc3)ccc2N1C=O [Example I-103, (S)-4-(furan-2-carbonyl)-2-methyl-6-(4-(methylsulfonyl)phenyl)-3,4-dihydroquinoxaline-1(2H)-carbaldehyde]
> 10000	> 500	CC(=O)N1c2ccc(-c3ccc(S(C)(=O)=O)cc3)cc2N(C)C[C@@H]1C [Example I-104, (S)-1-(2,4-dimethyl-6-(4-(methylsulfonyl)phenyl)-3,4-dihydroquinoxalin-1(2H)-yl)ethanone]
1000 to 10000	50 to 500	CC(=O)N1c2ccc(-c3cnn(C4COC4)c3)cc2N(C(=O)CC2CC2)C[C@@H]1C [Example I-107, (S)-1-(4-acetyl-3-methyl-7-(1-(oxetan-3-yl)-1H-pyrazol-4-yl)-3,4-dihydroquinoxalin-1(2H)-yl)-2-cyclopropylethanone]
1000 to 10000	50 to 500	CC(=O)N1c2ccc(-c3cnn(C4COC4)c3)cc2N(C(=O)CC2CCCC2)C[C@@H]1C [Example I-111, (S)-1-(4-acetyl-3-methyl-7-(1-(oxetan-3-yl)-1H-pyrazol-4-yl)-3,4-dihydroquinoxalin-1(2H)-yl)-2-cyclopentylethanone]
1000 to 10000	50 to 500	CC(=O)N1c2ccc(-c3cnn(Cc4ccncc4)c3)cc2N(C(=O)C2CC2)C[C@@H]1C [Example I-118, (S)-1-(4-(cyclopropanecarbonyl)-2-methyl-6-(1-(pyridin-4-ylmethyl)-1H-pyrazol-4-yl)-3,4-dihydroquinoxalin-1(2H)-yl)ethanone]
1000 to 10000	50 to 500	CC(=O)N1c2ccc(-c3ccc(S(C)(=O)=O)cc3)cc2N(C(=O)Oc2ccc(Cl)cc2)C[C@@H]1C [Example I-226]
> 10000	> 500	CC(=O)N1c2ccc(-c3ccc(S(C)(=O)=O)cc3)cc2N(C(=O)OCc2ccccc2)C[C@@H]1C [Example I-230]
1000 to 10000	50 to 500	COC(=O)N1C[C@H](C)N(C(C)=O)c2ccc(-c3ccc(S(C)(=O)=O)cc3)cc21 [Example I-235]
1000 to 10000	50 to 500	C#CCOC(=O)N1C[C@H](C)N(C(C)=O)c2ccc(-c3ccc(S(C)(=O)=O)cc3)cc21 [Example I-240]
1000 to 10000	50 to 500	CC(=O)N1C[C@H](C)N(C(C)=O)c2ccc(-c3ccc(S(C)(=O)=O)cc3)cc21 [Example I-241]
> 10000	> 500	CC(=O)N1c2ccc(-c3ccc(S(C)(=O)=O)cc3)cc2N(C(=O)C(C)C)C[C@@H]1C [Example I-242]
> 10000	> 500	CC(=O)N1c2ccc(-c3ccc(S(C)(=O)=O)cc3)cc2N(C(=O)C(C)(C)C)C[C@@H]1C [Example I-243]
1000 to 10000	50 to 500	CC(=O)N1c2ccc(-c3ccc(S(C)(=O)=O)cc3)cc2N(C(=O)C2CCCC2)C[C@@H]1C [Example I-244]
1000 to 10000	50 to 500	CC(=O)N1c2ccc(-c3ccc(S(C)(=O)=O)cc3)cc2N(C(=O)CC2CCCC2)C[C@@H]1C [Example I-246]
> 10000	> 500	CC(=O)N1c2ccc(-c3ccc(S(C)(=O)=O)cc3)cc2N(C(=O)CC#N)C[C@@H]1C [Example I-247]

Reference: patent publication US10703764B2, “Benzopiperazine compositions as BET bromodomain inhibitors” (FORMA Therapeutics, Inc., priority 2013, dated 2020)
